Source: PubChem BioAssay (NCI)
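Dose response: 5 concentrations. Exposure: 48 h. Format: 96-well plates. Endpoint: linear interpolation; highest concentration if not reached. TGI is the concentration that stops growth completely.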

Key:
Assay in all cases: DTP human tumour cell line panel, 48 h
IGROV1 ovarian = system: IGROV1 ovarian
MDA-MB-231 breast = system: MDA-MB-231 breast
PC-3 prostate = system: PC-3 prostate
MDA-N = system: MDA-N
OVCAR-8 ovarian = system: OVCAR-8 ovarian
DU-145 prostate = system: DU-145 prostate
HS 578T breast = system: HS 578T breast
KM12 colon = system: KM12 colon
SK-MEL-28 melanoma = system: SK-MEL-28 melanoma
786-0 renal = system: 786-0 renal
SN12C renal = system: SN12C renal
NCI-H522 lung = system: NCI-H522 lung
SF-268 CNS = system: SF-268 CNS
SK-OV-3 ovarian = system: SK-OV-3 ovarian
HL-60(TB) leukemia = system: HL-60(TB) leukemia
MDA-MB-435 = system: MDA-MB-435
LOX IMVI melanoma = system: LOX IMVI melanoma
NCI/ADR-RES ovarian = system: NCI/ADR-RES ovarian
CCRF-CEM leukemia = system: CCRF-CEM leukemia
HT29 colon = system: HT29 colon
TK-10 renal = system: TK-10 renal
HOP-92 NSCLC = system: HOP-92 NSCLC
A498 renal = system: A498 renal
SNB-19 CNS = system: SNB-19 CNS
SK-MEL-2 melanoma = system: SK-MEL-2 melanoma
OVCAR-5 ovarian = system: OVCAR-5 ovarian
HOP-62 NSCLC = system: HOP-62 NSCLC
UACC-62 melanoma = system: UACC-62 melanoma
MCF7 breast = system: MCF7 breast
RXF 393 renal = system: RXF 393 renal
HCT-15 colon = system: HCT-15 colon
UO-31 renal = system: UO-31 renal
SF-295 CNS = system: SF-295 CNS
OVCAR-3 ovarian = system: OVCAR-3 ovarian
NCI-H226 lung = system: NCI-H226 lung
SR leukemia = system: SR leukemia
NCI-H460 lung = system: NCI-H460 lung
SW-620 colon = system: SW-620 colon
ACHN renal = system: ACHN renal
K-562 leukemia = system: K-562 leukemia
A549 NSCLC = system: A549 NSCLC
T-47D breast = system: T-47D breast
NCI-H23 lung = system: NCI-H23 lung
MOLT-4 leukemia = system: MOLT-4 leukemia
CAKI-1 renal = system: CAKI-1 renal
RPMI-8226 leukemia = system: RPMI-8226 leukemia
EKVX NSCLC = system: EKVX NSCLC
SF-539 CNS = system: SF-539 CNS
M14 melanoma = system: M14 melanoma
U251 CNS = system: U251 CNS
SNB-75 CNS = system: SNB-75 CNS
UACC-257 melanoma = system: UACC-257 melanoma
BT-549 breast = system: BT-549 breast
SK-MEL-5 melanoma = system: SK-MEL-5 melanoma
MALME-3M melanoma = system: MALME-3M melanoma
HCT-116 colon = system: HCT-116 colon
HCC-2998 colon = system: HCC-2998 colon
COLO 205 colon = system: COLO 205 colon

Measured: TGI

COC(=O)NC(Nc1ccc(Cl)cc1Cl)(C(F)(F)F)C(F)(F)F
94.7 µM: UO-31 renal
> 100 µM: IGROV1 ovarian | MDA-MB-231 breast | PC-3 prostate | MDA-N | OVCAR-8 ovarian | DU-145 prostate | HS 578T breast | KM12 colon | SK-MEL-28 melanoma | 786-0 renal | SN12C renal | NCI-H522 lung | SF-268 CNS | SK-OV-3 ovarian | HL-60(TB) leukemia | MDA-MB-435 | LOX IMVI melanoma | NCI/ADR-RES ovarian | CCRF-CEM leukemia | HT29 colon | TK-10 renal | HOP-92 NSCLC | A498 renal | SNB-19 CNS | SK-MEL-2 melanoma | OVCAR-5 ovarian | HOP-62 NSCLC | UACC-62 melanoma | MCF7 breast | RXF 393 renal | HCT-15 colon | SF-295 CNS | OVCAR-3 ovarian | NCI-H226 lung | SR leukemia | NCI-H460 lung | SW-620 colon | ACHN renal | K-562 leukemia | A549 NSCLC | T-47D breast | NCI-H23 lung | MOLT-4 leukemia | CAKI-1 renal | RPMI-8226 leukemia | EKVX NSCLC | SF-539 CNS | M14 melanoma | U251 CNS | SNB-75 CNS | UACC-257 melanoma | BT-549 breast | SK-MEL-5 melanoma | MALME-3M melanoma | HCT-116 colon | HCC-2998 colon | COLO 205 colon
